Test results reported in ChEMBL document CHEMBL1152359, “Synthesis and structure-activity relationships of gamma-carboline derivatives as potent and selective cysLT(1) antagonists” (Bioorg Med Chem Lett, 2009).

Test: in vivo
Details: rat

bioavailability | SMILES
63% | CC(C)(O)c1ccccc1CC[C@@H](SCC1(CC(=O)O)CC1)c1cccc(/C=C/c2ccc3ccc(Cl)cc3n2)c1 [MONTELUKAST]
25% | COc1cc(C(=O)NS(=O)(=O)c2ccccc2C)ccc1Cc1cn(C)c2ccc(NC(=O)OC3CCCC3)cc12 [ZAFIRLUKAST]
